One assay concerns E. coli MS 200-1. Description: Growth-based phenotypic high-throughput screen (OD600 Z-scores, choline vs glycerol NCE medium). The class given is cell-based, Escherichia coli MS 200-1. The conditions noted are these: 20 µg/mL; for Z-score from HTS, Zcho at T1 / Z-score from HTS, Zcho at T2: choline NCE medium; for Z-score from HTS, Zcho at T1 / Z-score from HTS, Zgly at T1: 7 h; for Z-score from HTS, Zcho at T2 / Z-score from HTS, Zgly at T2: 20 h; for Z-score from HTS, Zgly at T1 / Z-score from HTS, Zgly at T2: glycerol NCE medium. The procedure:
The primary screen was performed in duplicate using the ChemDiv7 commercial library from the Institute of Chemistry and Cell Biology–Longwood (ICCB-L) Screening Facility, consisting of 49,128 compounds (Fig. 1D). Each compound was tested at a concentration of 20 µg/mL.
NCE media was adapted based on the “no carbon E” media as previously described ([14]), and contains 29 mM potassium phosphate monobasic, 29 mM potassium phosphate dibasic, 17 mM ammonium sodium phosphate dibasic, 40 mM sodium fumarate dibasic, 0.1% (wt/vol) casamino acids, and either 20 mM choline chloride or 3 g/L glycerol. This mixture was supplemented with 1 mM magnesium sulfate, 1% ATCC vitamin supplement, and 1% ATCC trace mineral supplement.
Compounds from the Institute of Chemistry and Cell Biology-Longwood Screening Facility (ICCB-L) commercial ChemDiv7 library were transferred to 384-well plates at 5 mg/mL in DMSO.
E. coli was grown anaerobically in LB media containing 1 mM choline chloride overnight at 37°C and then resuspended (two log-fold dilution) in either NCE media supplemented with 20 mM choline or 3 g/L glycerol for screening. The E. coli cultures were then added to the compound plates and incubated at 37°C anaerobically. The final concentration of compounds in culture was 20 µg/mL. OD600 was measured at 7 h and 20 h in duplicate compound plates. For control, 60 µg/mL kanamycin was used. Z-scores of each compound were calculated by measuring the number of standard deviations of each well’s OD600 with respect to the plate’s mean OD600. Compounds with a Z-score of less than –2 on choline but more than or equal to 0 on glycerol, in at least one replicate plate, were selected for further validation. Z’ was calculated using the control columns, as an internal quality control.

Assay [1] relates to panel of commensal bacterial strains. Description: MIC against panel of nine gut commensal bacteria. The conditions noted are these: read-out: MICs against gut commensal panel.
Where [2] appears, read: first value of cell (replicate plate).
The mark [3] stands for this setting: second value of cell (replicate plate).

On to `Cc1ccc(-c2cc(C(=O)NCCCN3CCc4ccccc4C3)c(C)[nH]2)cc1C` [Compound 5], for which, in the assay with E. coli MS 200-1 (setting [2]), the “Z-score from HTS, Zcho at T1” value is reported as −4.27; the “Z-score from HTS, Zcho at T2” value is recorded as 0.16; the “Z-score from HTS, Zgly at T1” value was −1.42; the “Z-score from HTS, Zgly at T2” value is reported as 0.83. Further, in the assay on E. coli MS 200-1 (setting [3]), the “Z-score from HTS, Zcho at T1” value is on record as “–4.23”; the “Z-score from HTS, Zcho at T2” value was “–0.06”; the “Z-score from HTS, Zgly at T1” value was 0.61; the “Z-score from HTS, Zgly at T2” value is 1.41.

`Cc1ccc(-c2cc(C(=O)NCCCCCN3CCCCCC3)c(C)[nH]2)cc1C` [Compound 45]: the MIC in assay [1] is above 200 µM.
